Measurements taken from patent US20240182453A1, “NOVEL SUBSTITUTED PYRAZINE-CARBOXAMIDE DERIVATIVES” (Boehringer Ingelheim International GmbH, priority 2022, published 2024).

Molecular target: human metabotropic Glutamate 4 receptor (mGluR4) (Homo sapiens (Human), UniProt Q14833)
Experiment: Assay A: in vitro testing of mGluR4 potency (glutamate-induced cAMP lowering, HTRF cAMP)
Format: cell-based
Settings: HEK293 cells overexpressing human mGluR4; 10 uM L-glutamic acid, 1 uM forskolin; compounds of the present invention
Description: A. In Vitro Testing of mGluR4 Potency
The in vitro activity of the compounds according to the invention may be investigated as follows:
The HEK293 cell overexpressing the human metabotropic Glutamate 4 receptor are thawed at 37° C. and immediately diluted with cell culture medium. After centrifugation, the cell pellet is re-suspended in medium and then distributed from a stirred spinner flask into the wells of the assay plate. The plates are incubated for one hour at room temperature before they are incubated for 24 hours at 37° C./5% CO2. After washing the cells in the plate three times with 80 uL HBSS/HEPES buffer (10 uL buffer remained in the wells after washing), 5 uL per well of compounds diluted in HBSS/HEPES buffer containing 0.2% BSA (final concentration: 0.1%) and 1 mM IBMX (final concentration: 0.5 mM) are added to the wells of the assay plate. Thereafter 5 uL per well of L-Glutamic acid (final concentration: 10 uM), forskolin (final concentration: 1 uM) and 1 mM IBMX (final concentration: 0.5 mM) dissolved in HBSS/HEPES buffer containing 0.2% BSA (final concentration: 0.1%) are added to the assay plate (final DMSO concentration: 1%). Several wells of the assay plate are used either for the positive and the negative controls or for the cAMP standard curve. The assay plate is incubated for 30 minutes at room temperature. Then 5 ul per well of Anti-cAMP-Antibody-d2 solution and 5 ul per well of cAMP-Europium Cryptate dilution are added to all wells of the plate and the plate is incubated another 60 minutes light protected at room temperature. The emission at 615 nm and 665 nm (Excitation wavelength: 320 nm) are measured on the EnVision™ reader (Perkin Elmer). The ratio between the emission at 665 nm and 615 is calculated by the reader. The whole assay is performed in the dark or under green light.
The cAMP standard is prepared by diluting the cAMP stock solution with HBSS/Hepes buffer: 5 μl/well of the cAMP dilutions (in HBSS/Hepes buffer containing 1 mM IBMX and 0.2% BSA—final concentration: 0.5 mM IBMX and 0.1% BSA) are added to 10 ul/well HBSS/Hepes buffer plus 5 ul/well 4% DMSO in HBSS/Hepes containing 0.2% BSA (final DMSO concentration: 1%—like in the wells containing compounds) in the wells of the assay plate. The final cAMP concentrations in the assay plate are: 0, 0.17, 0.69, 2.78, 11.1, 44.5, 178, and 712 nM (two wells/cAMP concentration).
Each assay microtiter plate contained also wells with vehicle controls instead of compound as controls for L-Glutamic acid induced signal (negative control; 100% CTL; 10 uM L-Glutamic acid+1 uM forskolin+0.5 mM IBMX+1% DMSO) and wells with vehicle controls without L-Glutamic acid as controls for non-specific changes in signal (positive control; 0% CTL; 0 uM L-Glutamic acid+1 uM forskolin+0.5 mM IBMX+1% DMSO).
The analysis of the data is performed by the calculation the ratio between the emission at 665 nm and the emission at 615 nm (Em665/Em615 ratio). Thereafter the signals of the compounds are normalized using the positive and negative controls by the following formula:
PoC=100×((Signal Sample−Positive Control)/(Negative Control−Positive Control))

human metabotropic Glutamate 4 receptor (mGluR4), sequence (Q14833 33-912): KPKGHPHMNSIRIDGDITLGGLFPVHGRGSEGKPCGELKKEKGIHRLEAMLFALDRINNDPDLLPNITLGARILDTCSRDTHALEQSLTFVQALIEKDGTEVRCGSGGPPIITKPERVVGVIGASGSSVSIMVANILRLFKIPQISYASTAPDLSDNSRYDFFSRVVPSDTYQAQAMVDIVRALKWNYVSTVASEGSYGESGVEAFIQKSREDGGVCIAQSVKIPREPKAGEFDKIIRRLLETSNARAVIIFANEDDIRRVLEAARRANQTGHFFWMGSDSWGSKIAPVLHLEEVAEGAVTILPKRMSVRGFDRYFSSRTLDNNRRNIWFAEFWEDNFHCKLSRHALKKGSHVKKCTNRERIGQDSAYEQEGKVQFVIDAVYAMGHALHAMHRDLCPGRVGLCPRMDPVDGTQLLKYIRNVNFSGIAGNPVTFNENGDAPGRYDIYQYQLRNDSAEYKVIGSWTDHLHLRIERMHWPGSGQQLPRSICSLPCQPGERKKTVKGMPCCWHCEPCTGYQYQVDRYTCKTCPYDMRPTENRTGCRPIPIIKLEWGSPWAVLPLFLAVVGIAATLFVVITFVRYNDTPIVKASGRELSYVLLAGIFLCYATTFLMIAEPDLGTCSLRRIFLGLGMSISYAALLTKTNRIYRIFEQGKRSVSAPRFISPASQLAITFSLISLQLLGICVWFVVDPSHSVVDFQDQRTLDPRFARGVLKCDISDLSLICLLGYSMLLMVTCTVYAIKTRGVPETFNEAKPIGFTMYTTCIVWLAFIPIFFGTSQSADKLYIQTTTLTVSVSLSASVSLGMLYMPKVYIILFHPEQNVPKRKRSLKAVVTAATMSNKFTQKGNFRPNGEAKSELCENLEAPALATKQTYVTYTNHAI

IC50 [nM] | Compound
4 | 5-(difluoromethyl)-N-[(1S)-1-(1-ethyl-5-fluoro-1H-1,3-benzodiazol-2-yl)-2-methylpropyl]pyrazine-2-carboxamide [Example 59]
13 | COCCn1c(C(NC(=O)c2cnc(C)cn2)C2CCCO2)nc2cc(C(F)(F)F)ccc21 (single isomer, unassigned) [Example 19-1, N-{[1-(2-methoxyethyl)-5-(trifluoromethyl)-1H-1,3-benzodiazol-2-yl](oxolan-2-yl)methyl}-5-methylpyrazine-2-carboxamide]
3 | COCCn1c([C@@H](NC(=O)c2cnc(C)cn2)[C@H]2CCCO2)nc2cc(C(F)(F)F)ccc21 (single isomer, unassigned) [Example 19]
60 | COCCn1c(C(NC(=O)c2cnc(C(F)F)cn2)C2CCOC2)nc2cc(F)ccc21 (single isomer, unassigned) [Example 48-2, 5-(difluoromethyl)-N-{[5-fluoro-1-(2-methoxyethyl)-1H-1,3-benzodiazol-2-yl](oxolan-3-yl)methyl} pyrazine-2-carboxamide]
13 | Cc1cnc(C(=O)N[C@H](c2nc3cc(C(F)(F)F)ccc3n2C)[C@H]2CCCO2)cn1 (single isomer, unassigned) [Example 56]
28 | COCCn1c(C(NC(=O)c2cnc(C)cn2)C2CCOC2)nc2cc(OC(F)(F)F)ccc21 (single isomer, unassigned) [Example 62-2, N-{[1-(2-methoxyethyl)-5-(trifluoromethoxy)-1H-1,3-benzodiazol-2-yl](oxolan-3-yl)methyl}-5-methylpyrazine-2-carboxamide]
20 | CCn1c(C(NC(=O)c2cnc(C)cn2)C2CCOC2)nc2cc(OC(F)(F)F)ccc21 (single isomer, unassigned) [Example 70-2, N-{[1-ethyl-5-(trifluoromethoxy)-1H-1,3-benzodiazol-2-yl](oxolan-3-yl)methyl}-5-methylpyrazine-2-carboxamide]
12 | CCn1c([C@@H](NC(=O)c2cnc(C)cn2)[C@H]2CCOC2)nc2cc(OC(F)(F)F)ccc21 (single isomer, unassigned) [Example 70]
3 | COCCn1c(C(NC(=O)c2cnc(C)cn2)C2CCCO2)nc2cc(C(F)(F)F)ccc21 (single isomer, unassigned) [Example 71-2, N-{[1-(2-methoxyethyl)-5-(trifluoromethyl)-1H-1,3-benzodiazol-2-yl](oxolan-2-yl)methyl}-5-methylpyrazine-2-carboxamide]
13 | COCCn1c([C@@H](NC(=O)c2cnc(C)cn2)[C@H]2CCCO2)nc2cc(C(F)(F)F)ccc21 (single isomer, unassigned) [Example 71]
19 | Cc1cnc(C(=O)N[C@H](c2nc3cc(C(F)(F)F)ccc3n2C)[C@H]2CCCO2)cn1 (single isomer, unassigned) [Example 75]
25 | Cc1cnc(C(=O)NC(c2nc3cc(OC(F)(F)F)ccc3n2C)C2CCCOC2)cn1 (single isomer, unassigned) [Example 78-2, 5-methyl-N-{[1-methyl-5-(trifluoromethoxy)-1H-1,3-benzodiazol-2-yl](oxan-3-yl)methyl]pyrazine-2-carboxamide]
32 | Cc1cnc(C(=O)NC(c2nc3cc(C(F)(F)F)ccc3n2C)C2CCCOC2)cn1 (single isomer, unassigned) [Example 82-2, 5-methyl-N-{[1-methyl-5-(trifluoromethyl)-1H-1,3-benzodiazol-2-yl](oxan-3-yl)methyl}pyrazine-2-carboxamide]
21 | COCCn1c(C(NC(=O)c2cnc(C)cn2)C2CCOC2)nc2cc(C(F)(F)F)ccc21 (single isomer, unassigned) [Example 87-1, N-{[1-(2-methoxyethyl)-5-(trifluoromethyl)-1H-1,3-benzodiazol-2-yl](oxolan-3-yl)methyl}-5-methylpyrazine-2-carboxamide]
32 | COCCn1c(C(NC(=O)c2cnc(C)cn2)C2CCOC2)nc2cc(Cl)ccc21 (single isomer, unassigned) [Example 91-1, N-{[5-chloro-1-(2-methoxyethyl)-1H-1,3-benzodiazol-2-yl](oxolan-3-yl)methyl}-5-methylpyrazine-2-carboxamide]
12 | CCn1c(C(NC(=O)c2cnc(C)cn2)C2CCOC2)nc2cc(OC(F)(F)F)ccc21 (single isomer, unassigned) [Example 97-1, N-{[1-ethyl-5-(trifluoromethoxy)-1H-1,3-benzodiazol-2-yl](oxolan-3-yl)methyl}-5-methylpyrazine-2-carboxamide]
22 | COCCn1c(C(NC(=O)c2cnc(C)cn2)C2CCCOC2)nc2cc(C(F)(F)F)ccc21 (single isomer, unassigned) [Example 103-1, N-{[1-(2-methoxyethyl)-5-(trifluoromethyl)-1H-1,3-benzodiazol-2-yl](oxan-3-yl)methyl}-5-methylpyrazine-2-carboxamide]
11 | CCn1c(C(NC(=O)c2cnc(C)cn2)C2CCOC2)nc2cc(C(F)(F)F)ccc21 (single isomer, unassigned) [Example 139, N-{[1-ethyl-5-(trifluoromethyl)-1H-1,3-benzodiazol-2-yl](oxolan-3-yl)methyl}-5-methylpyrazine-2-carboxamide]
31 | Cc1cnc(C(=O)NC(c2nc3cc(C(F)(F)F)ccc3n2CC(F)F)C2CCOC2)cn1 (single isomer, unassigned) [Example 141, N-{[1-(2,2-difluoroethyl)-5-(trifluoromethyl)-1H-1,3-benzodiazol-2-yl](oxolan-3-yl)methyl}-5-methylpyrazine-2-carboxamide]
66 | CCn1c(C(NC(=O)c2cnc(C)cn2)C2CCOC2)nc2cc(F)ccc21 (single isomer, unassigned) [Example 143, N-[(1-ethyl-5-fluoro-1H-1,3-benzodiazol-2-yl)(oxolan-3-yl)methyl]-5-methylpyrazine-2-carboxamide]
16 | Cc1cnc(C(=O)NC(c2nc3ccc(C(F)(F)F)cc3n2CC(F)F)C2CCOC2)cn1 (single isomer, unassigned) [Example 146, N-{[1-(2,2-difluoroethyl)-6-(trifluoromethyl)-1H-1,3-benzodiazol-2-yl](oxolan-3-yl)methyl}-5-methylpyrazine-2-carboxamid]
11 | CCn1c(C(NC(=O)c2cnc(C)cn2)C2CCOC2)nc2ccc(C(F)(F)F)cc21 (single isomer, unassigned) [Example 147, N-{[1-ethyl-6-(trifluoromethyl)-1H-1,3-benzodiazol-2-yl](oxolan-3-yl)methyl}-5-methylpyrazine-2-carboxamide]
14 | CCn1c(C(NC(=O)c2cnc(C)cn2)C2CCOC2)nc2ccc(C(F)(F)F)cc21 (single isomer, unassigned) [Example 148, N-{[1-ethyl-6-(trifluoromethyl)-1H-1,3-benzodiazol-2-yl](oxolan-3-yl)methyl}-5-methylpyrazine-2-carboxamide]
30 | CCn1c(C(NC(=O)c2cnc(C)cn2)C2CCOC2)nc2cc(F)c(F)cc21 (single isomer, unassigned) [Example 159, N-[(1-ethyl-5,6-difluoro-1H-1,3-benzodiazol-2-yl)(oxolan-3-yl)methyl]-5-methylpyrazine-2-carboxamide]
47 | CCn1c(C(NC(=O)c2cnc(C)cn2)C2CCOC2)nc2cc(F)c(F)cc21 (single isomer, unassigned) [Example 160, N-[(1-ethyl-5,6-difluoro-1H-1,3-benzodiazol-2-yl)(oxolan-3-yl)methyl]-5-methylpyrazine-2-carboxamide]
14 | CCn1c(C(NC(=O)c2cnc(C)cn2)C2CCOC2)nc2cc(Cl)ccc21 (single isomer, unassigned) [Example 161, N-[(5-chloro-1-ethyl-1H-1,3-benzodiazol-2-yl)(oxolan-3-yl)methyl]-5-methylpyrazine-2-carboxamide]
